Results taken from patent US4020164A, “Benzomorphan derivatives” (priority 1972, dated 1977).
Read-outs that look alike come from different tables or passages of the source.

Tests used:
morphine [1] = experiment: animal or person; type: in vivo, rats
morphine [2] = test system: morphine; set-up: species or system mice; details: mouse, in vivo
phenylquinone [3] = experiment: Writhing test, acute (phenylquinone writhing, analgesic activity); type: in vivo; details: Mus musculus, mice, acute, phenylquinone 2 mg/kg i.p., hydrochloride
Description: (§1) The pharmacological investigations were conducted on mice weighing 20-22 g. or on rats weighing 80-110 g. Unless indicated otherwise, the test substances were administered in the form of the hydrochloride acid addition salt thereof in an isotonic NaCl solution, and the animals were examined 30 minutes after subcutaneous (sc) application. The injection volume was respectively 5 ml./kg. of body weight. 10-40 controls animals were used in each experiment. The test and control solutions were administered in accordance with a randomized injection schedule. Seven logarithmically spaced dosages were employed of each test substance. The effective dose (ED) was calculated by probit analysis (Finney, D. J., "Probit Analysis," Cambridge University Press, 2nd Edition, Cambridge 1957). ED50 figures were rounded.
(§2) In the acute test, the test compounds were administered perorally (p.o.) or subcutaneously (s.c.) to mice. Eight mice were used per dose. Seven minutes prior to the testing, the animals received 2 mg./kg. of phenylquinone intraperitoneally. […] The criterion for protective effect was absence of writhes during the eighth minute after phenylquinone administration.

apomorphine = experiment: Apomorphine antagonism test; type: in vivo, mice; details: Mus musculus, sc, read-out: ED50, Apomorphine Antagonism
Description: as §1
The criterion for antagonistic effect was the absence of stereotyped movements within an observation period of one minute.

electroshock = experiment: Maximal electroshock test; type: in vivo; details: Mus musculus, sc, 0.5 h; mice; 16 mA/50 c.p.s., 0.2 second, transcorneal; absence of tonic extensor cramp of hind limbs, 30 min
Description: 10-40 controls animals were used in each experiment. […] ED50 figures were rounded.
In the maximum electroshock test, the test substances were administered to dose groups of 6 mice. Sinusoidal pulses of 16 milliamperes/50 c.p.s. [Hertz] and 0.2 second duration were delivered transcorneally via silver electrodes. The shock intensity used elicits nonlethal tonic-clonic convulsions in control animals (p <0.01, N = 192). The criterion for protective effect was the absence of the tonic extensor cramp of the hind limbs after shock application (modified test according to Swinyard et al., J. Pharmacol. Exp. Ther. 106, 319, 1952).

morphine [4] = experiment: Precipitated Withdrawal Jumping Test (morphine antagonism in morphine-dependent mice); type: in vivo; details: morphine-dependent mice
Description: as §1
The test compound was given to dose groups of 8 animals. The antagonist-precipitated withdrawal jumping frequencies were recorded during three 5-minute observation intervals uniformly distributed over 30 minutes after administration of the test compound. […] The criterion for a precipitating effect is a mean jumping frequency of >1/minute.

naloxone = experiment: Naloxone challenge after subchronic administration of test compound (physical dependency); details: mice; naloxone in doses of up to 100 mg/kg; same schedule and total dosage as for acute morphine dependency
phenylquinone [5] = details: mice; after subchronic administration of equal total doses
Description: as §1, §2
In the subchronic test, the same test was performed 25 hours after the last injection of a 64-hour pretreatment period, with the test compound being administered subcutaneously. During the pretreatment period, the subjects received a total of 550 mg/kg. of the test compound, with the test compound being injected over a period of 22 hours in 4 increasing dosages in salt form, and over an additional 42 hours in 2 identical dosages in free base form in sesame oil.

**Q.** What does the source list for `CC(C)=CCN1CCC2(C)c3cc(O)ccc3CC1C2C` (centres unmarked) [Pentazocine, reference compound]?
**A.** ED50 (morphine [1]; Rattus norvegicus, sc, read-out: ED50, Morphine Antagonism-Tail-Flick Test, Rats): 40 mg/kg; morphine-antagonistic activity, tail-flick test (in words), rats (morphine [1]; rat, in vivo): weaker activity, especially in rats; morphine-antagonistic activity, tail-flick test (in words), mice (morphine [2]): weaker activity; ED50, Morphine Antagonism-Tail-Flick Test, Mice (morphine [2]; sc, 12.5 mg/kg): 5 mg/kg; ED50 (phenylquinone [3]; po, 10 min, p.o., 10 min p.i., ED50 rounded, read-out: ED50, writhing test, acute p.o., 10 min. p.i.): 50 mg/kg; ED50 (phenylquinone [3]; po, 0.5 h, p.o., 30 min p.i., ED50 rounded, read-out: ED50, writhing test, acute p.o., 30 min. p.i.): 70 mg/kg; ED50 (phenylquinone [3]; sc, 10 min, s.c., 10 min p.i., ED50 rounded, read-out: ED50, writhing test, acute s.c., 10 min. p.i.): 3 mg/kg; ED50 (phenylquinone [3]; sc, 0.5 h, s.c., 30 min p.i., * = significant difference between acute and subchronic ED50 (p < 0.001), read-out: ED50, writhing test, acute s.c., 30 min. p.i.): 3 mg/kg; ED50 (apomorphine): 40 mg/kg; ED50 (electroshock): 17 mg/kg; precipitated withdrawal effect (in words) (morphine [4]): completely inactive; ED50, Precipitated Withdrawal Jumping Test (inactive, footnote 3) (morphine [4]; tested at 0.78 - 50 mg/kg): Inactive; withdrawal jumping precipitated by naloxone after subchronic administration (morphine-like physical dependency) (naloxone): no withdrawal jumping is precipitated; tolerance development (phenylquinone [5]): do not exhibit tolerance development
